In brackets after ≈: the same amount, converted by molar mass. Entries after “also recorded” stand apart in the source; their conditions may differ.
Columns and labels:
[1] = tested on: MDA-MB-468 breast cancer xenograft; assay: In vivo tumor regression study, subcutaneous administration; details: 0.75 mg/kg
Source text: Since there was no statistical difference in efficacy observed between FSI-Rapa and FAF-Rapa intravenously, Applicants next employed SC route of administration in the same MDA-MB-468 xenograft mouse model (FIGS. 5A-5H). The rationale behind exploring SC route was to distinguish the uptake and bio distribution of different FKBP-ELPs from the site of injection into the systemic circulation. […] SC route further presents a convenient administration method compared to IV route with more clinical relevance and has been FDA approved for monoclonal antibodies and biotherapeutics.
The comparative tumor regression study consisted of 5 groups: PBS, Free Rapa, FAF-Rapa, FA-Rapa, and FSI-Rapa at the same maximum tolerated dose of 0.75 mg/kg (n=6-8/group). All treatments were done subcutaneously in the right flank above the hind leg. […] Because of the toxic side effects, mice were thereafter treated with free Rapa in DMSO:EtOH:Cremophore-EL:PBS formulation in 1:1:2:6% v/v ratio. […] However, the mice gradually gained back the lost BW which enabled us to continue the treatment with the Cremophore formulation. To prevent further local discomfort to mice, a different site of injection was chosen each time spanning the entire flank region for free Rapa injections. […] There was no local bruising or scabs observed with any of the FKBP-ELP-Rapa formulations which made the treatment easier and at the same site of injection throughout the study.
All animal experiments were conducted as per the guidelines of the American Association of Laboratory Animal Care under an USC approved protocol. MDA-MB-468 cells (American Type Tissue Culture Collection) were cultured at 37° C. with 5% CO2 in Dulbecco's modified Eagle's medium (DMEM)/Ham's F-12 media (Caisson) supplemented with 10% fetal bovine serum. The cells were sent for screening against all major mouse pathogens and human blood borne pathogens (Charles River) prior to implantation. A single injection of MDA-MB-468 cells (1-2×10^6 cells in 100 μL fetal bovine serum free DMEM media) was implanted into the left mammary fat pad of 7-8 weeks old female nude (nu/nu) athymic mice (Harlan, Inc.) Tumors were allowed to grow to a size of ˜50-100 mm^3 and mice were randomized blindly into respective groups before start of treatment. […] BW and tumor size were measured thrice a week on the same day of injections. Tumor size was measured using Vernier calipers and tumor volume was calculated using the following equation:
where a and b represents smaller and bigger length respectively. […] Tumor burden was calculated by determining the trapezoidal area under the growth curve for each mouse by using the following equation: […]

[2] = cited from earlier work

SMILES: CO[C@H]1C[C@@H]2CC[C@@H](C)[C@@](O)(O2)C(=O)C(=O)N2CCCC[C@H]2C(=O)O[C@H]([C@H](C)C[C@@H]2CC[C@@H](O)[C@H](OC)C2)CC(=O)[C@H](C)/C=C(\C)[C@@H](O)[C@@H](OC)C(=O)[C@H](C)C[C@H](C)/C=C/C=C/C=C/1C [Free Rapa, (3S,6R,7E,9R,10R,12R,14S,15E,17E,19E,21S,23S,26R,27R,34aS)-9,10,12,13,14,21,22,23,24,25,26,27,32,33,34,34a-hexadecahydro-9,27-dihydroxy-3-[(1R)-2-[(1S,3R,4R)-4-hydroxy-3-methoxycyclohexyl]-1-methylethyl]-10,21-dimethoxy-6,8,12,14,20,26-hexamethyl-23,27-epoxy-3H-pyrido[2,1-c][1,4]-oxaazacyclohentriacontine-1,5,11,28,29(4H,6H,31H)-pentone]
- tumor burden compared to PBS group ([1]; SC, Tukey post hoc, last day of treatment (day 50)): statistically significance compared to PBS group; also recorded: significantly lower compared to PBS
- Kaplan-Meier survival analysis ([1]; SC, endpoint 4 times increase in tumor volume): better anti-tumor efficacy than other groups
- drop in BW ([1]; mouse, in vivo, sc): 10%
- toxicity, local toxicity at the site of injection ([1]; mouse, in vivo, sc): considerable local toxicity at site of subcutaneous injection
- aqueous solubility [2]: ~10 µM (≈ 9.14 µg/mL)

Reference: patent publication US20190290726A1, “PROTEIN POLYMER FUSIONS FOR SUBCUTANEOUS DELIVERY OF SMALL MOLECULES” (University of Southern California, priority 2016, published 2019)
